Tested on: mouse model of generalised seizure (tonic hind limb extensor convulsions)
Assay: Maximal electroshock seizure threshold (MEST) test in the mouse
Conditions: for % change from vehicle: change in CC50; for CC50 +/− SEM: vehicle CC50 21.0 mA
Procedure: The efficacy of exemplary cannabinoid derivatives according to Formula I and Formula II were tested in a mouse model of generalised seizure, the maximal electroshock seizure threshold (MEST) test.
The maximal electroshock seizure threshold (MEST) test is widely utilized preclinically to evaluate pro- or anti-convulsant properties of test compounds (Loscher et al., 1991).
In the MEST test the ability of a drug to alter the seizure threshold current required to induce hind limb tonic extensor convulsions is measured according to an “up and down” method of shock titration (Kimball et al., 1957). An increase in seizure threshold is indicative of anti-convulsant effect.
Conversely, a reduction in seizure threshold is indicative of a pro-convulsant effect as observed with known convulsant agents such as picrotoxin.
The ability of a test compound to alter the stimulus intensity, expressed as current (mA), required to induce the presence of tonic hind limb extensor convulsions, is assessed in the MEST.
Naïve mice were acclimatised to the procedure room in their home cages for up to 7 days, with food and water available ad libitum.
All animals were weighed at the beginning of the study and randomly assigned to treatment groups based on a mean distribution of body weight across groups.
The first animal within a treatment group was given a shock at the expected or estimated CC50 current. For subsequent animals, the current was lowered or raised depending on the convulsions outcome from the preceding animal.
Data generated from each treatment group were used to calculate the CC50±SEM values for the treatment group.
Vehicle: (5% ethanol, 5% solutol in 90% Saline) was prepared as follows: 2 mL of ethanol, 2 mL of solutol were warmed to 60° C., in 36 mL of saline (1:1:18).
The test compounds used were 12a, 12b, 18a and 18b. Test compounds were administered at 200 mg/kg (i.p.) in a 1:1:18 ethanol:solutol:saline formulation.
The data for each treatment group were recorded as the number of +'s and 0's at each current level employed and this information is then used to calculate the CC50 value (current required for 50% of the animals to show seizure behaviour)±standard error.
Test compound effects were also calculated as percentage change in CC50 from the vehicle control group.
Significant difference between drug-treated animals and controls were assessed according to Litchfield and Wilcoxon (1949).

[1] = 200 mg/kg i.p., 120 min post dose
[2] = 200 mg/kg i.p., test 120 min post dose

Structure (SMILES): C=C(C)[C@@H]1CCC(C)=C[C@H]1c1c(O)cc(O)c2c1OCC[C@H]2CC [Compound 18b]
- % change from vehicle [1]: 92%
- CC50 +/− SEM [2]: 40.3 +/− 0.8 mA

Structure (SMILES): C=C(C)[C@@H]1CCC(C)=C[C@H]1c1c(O)cc2c(c1O)[C@H](CC)CCO2 [Compound 12b]
- % change from vehicle (200 mg/kg i.p., 30 min post dose): 109%
- CC50 +/− SEM (200 mg/kg i.p., test 30 min post dose): 43.8 +/− 0.2 mA

Structure (SMILES): C=C(C)[C@@H]1CCC(C)=C[C@H]1c1c(O)cc2c(c1O)[C@H](CC)CCC2 [Compound 12a]
- % change from vehicle (200 mg/kg i.p., 60 min post dose): 157%
- CC50 +/− SEM (200 mg/kg i.p., test 60 min post dose): 54.0 +/− 0.2 mA

Structure (SMILES): CN1C(=O)CN=C(c2ccccc2)c2cc(Cl)ccc21 [Diazepam, diazepam, reference compound]
- % change from vehicle (diazepam 2.5 mg/kg i.p., 30 min post dose): 66%

Structure (SMILES): C=C(C)[C@@H]1CCC(C)=C[C@H]1c1c(O)cc(O)c2c1CCC[C@H]2CC [Compound 18a]
- % change from vehicle [1]: 99%
- CC50 +/− SEM [2]: 41.8 +/− 0.5 mA

Source: US12403136B2, “Cannabinoid derivatives as pharmaceutically active compounds and methods of preparation thereof” (JAZZ PHARMACEUTICALS RESEARCH UK LIMITED, priority 2019, dated 2025)
